Experimental data published in ChEMBL document CHEMBL4049403, “Oligo-aspartic acid conjugates with benzo[c][2,6]naphthyridine-8-carboxylic acid scaffold as picomolar inhibitors of CK2” (Bioorg Med Chem, 2017).
Where a SMILES comes first, the peptide text is derived from it. The star is where a group is joined. X1 = O=C(O)c1ccc2c(c1)nc(OCCCCCCCCC(=O)*)c1ccncc12

Tests used:
[1] = organism: Homo sapiens; assay: Inhibition of human CK2 assessed as residual activity at 1 uM in presence of 33P-ATP by filter-binding assay relative to control
[2] = target: Mitogen-activated protein kinase 8 (Homo sapiens) (UniProt P45983); assay: Inhibition of human JNK1 assessed as residual activity at 1 uM in presence of [33P]ATP by filter binding assay relative to control
[3] = target: Dual specificity tyrosine-phosphorylation-regulated kinase 2 (Homo sapiens) (UniProt Q92630); assay: Inhibition of human DYRK2 assessed as residual activity at 1 uM in presence of 33P-ATP by filter-binding assay relative to control
[4] = target: Dual specificity protein kinase CLK2 (Homo sapiens) (UniProt P49760); assay: Inhibition of human CLK2 assessed as residual activity at 1 uM in presence of 33P-ATP by filter-binding assay relative to control
[5] = target: Ribosomal protein S6 kinase alpha-3 (Homo sapiens) (UniProt P51812); assay: Inhibition of human RSK2 assessed as residual activity at 1 uM in presence of 33P-ATP by filter-binding assay relative to control
[6] = target: Tyrosine-protein kinase BTK (Homo sapiens) (UniProt Q06187); assay: Inhibition of human BTK assessed as residual activity at 1 uM in presence of 33P-ATP by filter-binding assay relative to control
[7] = target: Proto-oncogene tyrosine-protein kinase Src (Homo sapiens) (UniProt P12931); assay: Inhibition of human Src assessed as residual activity at 1 uM in presence of [33P]ATP by filter binding assay relative to control
[8] = target: Serine/threonine-protein kinase Nek2 (Homo sapiens) (UniProt P51955); assay: Inhibition of human NEK2a assessed as residual activity at 1 uM in presence of [33P]ATP by filter binding assay relative to control
[9] = target: Serine/threonine-protein kinase D1 (Homo sapiens) (UniProt Q15139); assay: Inhibition of human PKD1 assessed as residual activity at 1 uM in presence of [33P]ATP by filter binding assay relative to control
[10] = target: Mitogen-activated protein kinase 9 (Homo sapiens) (UniProt P45984); assay: Inhibition of human JNK2 assessed as residual activity at 1 uM in presence of [33P]ATP by filter binding assay relative to control
[11] = target: Insulin-like growth factor 1 receptor (Homo sapiens) (UniProt P08069); assay: Inhibition of human IGF-1R assessed as residual activity at 1 uM in presence of [33P]ATP by filter binding assay relative to control
[12] = target: Calcium/calmodulin-dependent protein kinase kinase 2 (Homo sapiens) (UniProt Q96RR4); assay: Inhibition of human CAMKKb assessed as residual activity at 1 uM in presence of [33P]ATP by filter binding assay relative to control
Chain of Calcium/calmodulin-dependent protein kinase kinase 2 (Homo sapiens) (Q96RR4 2-588 limits assumed): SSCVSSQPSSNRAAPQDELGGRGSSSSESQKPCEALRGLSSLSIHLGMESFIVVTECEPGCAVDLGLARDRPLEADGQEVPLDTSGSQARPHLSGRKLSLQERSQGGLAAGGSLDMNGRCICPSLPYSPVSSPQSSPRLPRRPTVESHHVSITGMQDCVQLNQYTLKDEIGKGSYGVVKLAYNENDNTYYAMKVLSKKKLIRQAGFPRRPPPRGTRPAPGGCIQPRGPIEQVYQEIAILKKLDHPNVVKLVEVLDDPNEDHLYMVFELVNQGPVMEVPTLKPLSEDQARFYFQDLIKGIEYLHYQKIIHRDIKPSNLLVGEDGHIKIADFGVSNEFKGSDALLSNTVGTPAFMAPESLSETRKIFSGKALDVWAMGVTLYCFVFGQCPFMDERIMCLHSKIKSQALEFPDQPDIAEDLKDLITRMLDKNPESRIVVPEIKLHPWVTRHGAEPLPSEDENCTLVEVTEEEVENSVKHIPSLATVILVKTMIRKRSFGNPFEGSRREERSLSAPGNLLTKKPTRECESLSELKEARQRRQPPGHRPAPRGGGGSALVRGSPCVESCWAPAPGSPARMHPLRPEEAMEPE

[13] = target: Inhibitor of nuclear factor kappa-B kinase subunit beta (Homo sapiens) (UniProt O14920); assay: Inhibition of human IKKb assessed as residual activity at 1 uM in presence of [33P]ATP by filter binding assay relative to control
[14] = target: Tyrosine-protein kinase SYK (Homo sapiens) (UniProt P43405); assay: Inhibition of human SYK assessed as residual activity at 1 uM in presence of [33P]ATP by filter binding assay relative to control
[15] = target: TGF-beta receptor type-1 (Homo sapiens) (UniProt P36897); assay: Inhibition of human TGFBR1 assessed as residual activity at 1 uM in presence of [33P]ATP by filter binding assay relative to control
[16] = target: Ephrin type-A receptor 2 (Homo sapiens) (UniProt P29317); assay: Inhibition of human EPHA2 assessed as residual activity at 1 uM in presence of [33P]ATP by filter binding assay relative to control
Chain of Ephrin type-A receptor 2 (Homo sapiens) (P29317 whole entry): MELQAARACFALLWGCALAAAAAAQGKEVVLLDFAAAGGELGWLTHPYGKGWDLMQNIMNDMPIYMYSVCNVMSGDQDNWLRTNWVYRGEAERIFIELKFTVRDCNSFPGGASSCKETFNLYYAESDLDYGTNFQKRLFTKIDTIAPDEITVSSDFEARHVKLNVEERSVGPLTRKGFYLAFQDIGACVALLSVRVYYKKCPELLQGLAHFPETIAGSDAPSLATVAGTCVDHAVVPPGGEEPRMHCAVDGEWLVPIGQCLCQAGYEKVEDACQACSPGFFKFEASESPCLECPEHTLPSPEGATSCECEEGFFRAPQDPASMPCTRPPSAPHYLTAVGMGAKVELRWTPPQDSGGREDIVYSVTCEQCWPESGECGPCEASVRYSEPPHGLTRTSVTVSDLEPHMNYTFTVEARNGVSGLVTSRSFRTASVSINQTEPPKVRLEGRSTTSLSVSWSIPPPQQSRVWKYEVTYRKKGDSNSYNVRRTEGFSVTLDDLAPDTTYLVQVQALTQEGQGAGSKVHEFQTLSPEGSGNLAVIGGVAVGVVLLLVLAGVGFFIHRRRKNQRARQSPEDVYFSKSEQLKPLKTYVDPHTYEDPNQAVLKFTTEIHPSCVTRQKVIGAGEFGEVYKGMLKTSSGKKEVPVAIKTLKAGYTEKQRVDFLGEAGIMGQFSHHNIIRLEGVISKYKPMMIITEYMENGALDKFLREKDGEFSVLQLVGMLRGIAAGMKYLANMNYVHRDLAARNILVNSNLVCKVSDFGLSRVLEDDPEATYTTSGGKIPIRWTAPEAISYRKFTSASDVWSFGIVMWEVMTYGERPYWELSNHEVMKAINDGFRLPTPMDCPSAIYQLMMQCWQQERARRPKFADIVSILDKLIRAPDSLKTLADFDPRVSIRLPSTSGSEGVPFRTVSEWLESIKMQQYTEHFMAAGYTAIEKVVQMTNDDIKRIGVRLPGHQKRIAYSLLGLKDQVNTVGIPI

[17] = target: Ephrin type-B receptor 1 (Homo sapiens) (UniProt P54762); assay: Inhibition of human EPHB1 assessed as residual activity at 1 uM in presence of [33P]ATP by filter binding assay relative to control
[18] = target: Serine/threonine-protein kinase Chk1 (Homo sapiens) (UniProt O14757); assay: Inhibition of human CHK1 assessed as residual activity at 1 uM in presence of [33P]ATP by filter binding assay relative to control
[19] = target: Insulin receptor-related protein (Homo sapiens) (UniProt P14616); assay: Inhibition of human IRR assessed as residual activity at 1 uM in presence of [33P]ATP by filter binding assay relative to control
Chain of Insulin receptor-related protein (Homo sapiens) (P14616 27-742 limits assumed): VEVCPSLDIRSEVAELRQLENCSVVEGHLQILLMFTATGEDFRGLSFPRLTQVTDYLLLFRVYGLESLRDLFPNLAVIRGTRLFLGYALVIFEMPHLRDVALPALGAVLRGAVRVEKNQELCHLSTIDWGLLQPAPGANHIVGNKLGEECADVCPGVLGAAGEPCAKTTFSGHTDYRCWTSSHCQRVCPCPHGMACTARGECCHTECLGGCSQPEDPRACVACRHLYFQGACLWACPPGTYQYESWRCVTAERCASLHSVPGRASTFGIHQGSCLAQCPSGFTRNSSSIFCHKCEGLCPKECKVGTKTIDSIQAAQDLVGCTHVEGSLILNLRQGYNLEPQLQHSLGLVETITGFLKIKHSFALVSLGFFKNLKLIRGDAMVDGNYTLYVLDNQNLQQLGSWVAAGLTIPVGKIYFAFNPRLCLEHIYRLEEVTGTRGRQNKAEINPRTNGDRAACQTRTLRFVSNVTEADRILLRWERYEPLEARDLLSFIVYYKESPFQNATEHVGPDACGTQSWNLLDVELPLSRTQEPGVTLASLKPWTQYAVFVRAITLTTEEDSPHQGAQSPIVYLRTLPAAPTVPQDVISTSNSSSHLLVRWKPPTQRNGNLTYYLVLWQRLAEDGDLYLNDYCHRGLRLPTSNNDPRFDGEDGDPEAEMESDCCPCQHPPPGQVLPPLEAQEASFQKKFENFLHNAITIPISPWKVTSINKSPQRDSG
Chain of Insulin receptor-related protein (Homo sapiens) (P14616 747-1297 limits assumed): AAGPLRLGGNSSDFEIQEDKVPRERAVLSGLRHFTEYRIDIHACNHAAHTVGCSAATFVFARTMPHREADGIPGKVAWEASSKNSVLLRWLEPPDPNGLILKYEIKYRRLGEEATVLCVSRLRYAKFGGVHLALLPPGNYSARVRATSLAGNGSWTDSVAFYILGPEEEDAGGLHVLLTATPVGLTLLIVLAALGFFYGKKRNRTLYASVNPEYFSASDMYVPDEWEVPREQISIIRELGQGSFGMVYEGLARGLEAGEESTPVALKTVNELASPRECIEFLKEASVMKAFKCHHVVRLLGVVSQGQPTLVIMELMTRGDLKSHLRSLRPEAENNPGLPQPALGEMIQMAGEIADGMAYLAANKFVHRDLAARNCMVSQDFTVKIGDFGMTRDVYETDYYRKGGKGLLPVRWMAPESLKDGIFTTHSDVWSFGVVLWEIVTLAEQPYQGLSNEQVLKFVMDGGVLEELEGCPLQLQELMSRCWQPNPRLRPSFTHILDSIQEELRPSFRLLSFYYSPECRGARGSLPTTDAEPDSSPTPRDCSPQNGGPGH

[20] = target: Serine/threonine-protein kinase PAK 2 (Homo sapiens) (UniProt Q13177); assay: Inhibition of human PAK2 assessed as residual activity at 1 uM in presence of [33P]ATP by filter binding assay relative to control
[21] = target: Misshapen-like kinase 1 (Homo sapiens) (UniProt Q8N4C8); assay: Inhibition of human MINK1 assessed as residual activity at 1 uM in presence of [33P]ATP by filter binding assay relative to control
[22] = target: Tau-tubulin kinase 2 (Homo sapiens) (UniProt Q6IQ55); assay: Inhibition of human TTBK2 assessed as residual activity at 1 uM in presence of [33P]ATP by filter binding assay relative to control
Chain of Tau-tubulin kinase 2 (Homo sapiens) (Q6IQ55 whole entry): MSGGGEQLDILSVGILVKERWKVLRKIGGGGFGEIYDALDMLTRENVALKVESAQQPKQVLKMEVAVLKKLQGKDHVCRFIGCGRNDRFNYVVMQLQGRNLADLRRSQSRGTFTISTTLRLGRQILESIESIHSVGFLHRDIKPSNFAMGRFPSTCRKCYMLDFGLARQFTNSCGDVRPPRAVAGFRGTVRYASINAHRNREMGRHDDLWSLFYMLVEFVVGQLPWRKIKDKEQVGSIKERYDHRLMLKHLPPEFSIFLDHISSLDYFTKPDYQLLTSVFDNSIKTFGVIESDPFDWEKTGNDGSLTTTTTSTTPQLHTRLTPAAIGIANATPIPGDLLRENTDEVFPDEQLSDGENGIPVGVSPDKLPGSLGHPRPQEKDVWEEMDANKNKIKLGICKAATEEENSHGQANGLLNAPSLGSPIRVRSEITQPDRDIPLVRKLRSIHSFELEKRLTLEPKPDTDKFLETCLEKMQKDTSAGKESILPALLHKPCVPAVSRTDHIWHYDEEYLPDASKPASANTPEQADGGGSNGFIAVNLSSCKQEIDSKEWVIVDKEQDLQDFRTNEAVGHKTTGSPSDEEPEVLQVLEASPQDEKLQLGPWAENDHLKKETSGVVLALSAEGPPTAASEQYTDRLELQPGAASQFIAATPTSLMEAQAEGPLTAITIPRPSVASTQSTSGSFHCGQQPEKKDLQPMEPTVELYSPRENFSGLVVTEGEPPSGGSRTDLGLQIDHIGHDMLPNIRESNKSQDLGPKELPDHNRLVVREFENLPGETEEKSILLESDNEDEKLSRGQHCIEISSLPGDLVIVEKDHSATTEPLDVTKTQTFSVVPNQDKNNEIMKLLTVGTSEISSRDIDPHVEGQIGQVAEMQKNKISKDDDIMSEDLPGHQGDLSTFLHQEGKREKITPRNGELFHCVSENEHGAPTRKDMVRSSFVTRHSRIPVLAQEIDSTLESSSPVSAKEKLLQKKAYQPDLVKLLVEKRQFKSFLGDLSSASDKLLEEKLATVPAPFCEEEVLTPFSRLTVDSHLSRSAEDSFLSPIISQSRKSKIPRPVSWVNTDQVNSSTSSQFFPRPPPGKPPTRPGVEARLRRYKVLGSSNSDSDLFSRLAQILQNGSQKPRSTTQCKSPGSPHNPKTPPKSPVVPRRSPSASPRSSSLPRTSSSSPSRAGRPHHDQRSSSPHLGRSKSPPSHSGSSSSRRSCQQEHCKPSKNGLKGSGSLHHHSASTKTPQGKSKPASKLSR

[23] = target: Serine/threonine-protein kinase PAK 4 (Homo sapiens) (UniProt O96013); assay: Inhibition of human PAK4 assessed as residual activity at 1 uM in presence of [33P]ATP by filter binding assay relative to control
Chain of Serine/threonine-protein kinase PAK 4 (Homo sapiens) (O96013 whole entry, looked up): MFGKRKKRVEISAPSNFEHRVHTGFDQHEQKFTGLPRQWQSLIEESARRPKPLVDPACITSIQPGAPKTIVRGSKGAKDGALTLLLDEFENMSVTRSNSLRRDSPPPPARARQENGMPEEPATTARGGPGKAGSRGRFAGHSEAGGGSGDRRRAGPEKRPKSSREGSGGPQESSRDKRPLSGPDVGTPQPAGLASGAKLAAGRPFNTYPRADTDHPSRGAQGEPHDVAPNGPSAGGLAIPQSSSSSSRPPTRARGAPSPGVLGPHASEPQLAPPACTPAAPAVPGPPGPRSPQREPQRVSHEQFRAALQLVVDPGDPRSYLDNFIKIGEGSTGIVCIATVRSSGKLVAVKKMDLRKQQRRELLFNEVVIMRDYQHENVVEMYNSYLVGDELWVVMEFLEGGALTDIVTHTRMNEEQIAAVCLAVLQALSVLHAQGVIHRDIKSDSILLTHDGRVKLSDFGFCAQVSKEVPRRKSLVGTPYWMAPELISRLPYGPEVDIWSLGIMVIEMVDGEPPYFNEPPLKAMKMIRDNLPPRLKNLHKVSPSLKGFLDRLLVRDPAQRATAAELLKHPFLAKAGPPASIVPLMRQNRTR

[24] = target: Mitogen-activated protein kinase 12 (Homo sapiens) (UniProt P53778); assay: Inhibition of human P38g MAPK assessed as residual activity at 1 uM in presence of [33P]ATP by filter binding assay relative to control
Chain of Mitogen-activated protein kinase 12 (Homo sapiens) (P53778 whole entry): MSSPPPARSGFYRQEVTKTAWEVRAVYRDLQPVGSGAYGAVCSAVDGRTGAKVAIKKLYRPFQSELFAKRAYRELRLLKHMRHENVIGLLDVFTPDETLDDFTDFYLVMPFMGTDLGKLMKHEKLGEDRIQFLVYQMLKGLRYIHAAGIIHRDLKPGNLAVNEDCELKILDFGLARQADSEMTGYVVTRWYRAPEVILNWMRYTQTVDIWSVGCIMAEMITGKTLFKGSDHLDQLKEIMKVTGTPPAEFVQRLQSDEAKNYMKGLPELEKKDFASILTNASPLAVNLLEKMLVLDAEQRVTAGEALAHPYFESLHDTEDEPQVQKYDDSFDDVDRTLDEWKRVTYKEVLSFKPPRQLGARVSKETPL

[25] = target: Serine/threonine-protein kinase PAK 6 (Homo sapiens) (UniProt Q9NQU5); assay: Inhibition of human PAK6 assessed as residual activity at 1 uM in presence of [33P]ATP by filter binding assay relative to control

## NCCCC[C@H](NC(=O)[C@H](CC(=O)O)NC(=O)[C@H](CC(=O)O)NC(=O)[C@H](CC(=O)O)NC(=O)[C@H](CC(=O)O)NC(=O)[C@H](CC(=O)O)NC(=O)[C@H](CC(=O)O)NC(=O)CCCCCCCCOc1nc2cc(C(=O)O)ccc2c2cnccc12)C(=O)O (X1-DDDDDDK-OH)
[1]
  Activity: 1%
[2]
  Activity: 91%
[3]
  Activity: 5%
[4]
  Activity: 19%
[5]
  Activity: 62%
[6]
  Activity: 62%
[7]
  Activity: 67%
[8]
  Activity: 76%
[9]
  Activity: 79%
[10]
  Activity: 79%
[11]
  Activity: 79%
[12]
  Activity: 81%
[13]
  Activity: 81%
[14]
  Activity: 84%
[15]
  Activity: 85%
[16]
  Activity: 87%
[17]
  Activity: 89%
[18]
  Activity: 91%
[19]
  Activity: 92%
[20]
  Activity: 97%
[21]
  Activity: 100%
[22]
  Activity: 101%
[23]
  Activity: 107%
[24]
  Activity: 107%
[25]
  Activity: 110%
